Experimental data taken from patent US11155597B2, “Relaxin1 derived peptides for use in immunotherapy” (Immatics Biotechnologies GmbH, priority 2015, dated 2021).

The substances below were run on CD8+ T cells of healthy HLA-A*02+ donors (assay: In vitro immunogenicity: T-cell priming with aAPCs loaded with peptide/MHC and anti-CD28, pMHC multimer readout). Settings: HLA-A*02 restricted peptides; Table 6B.
Assay type: cell-based, human
Excerpt: In order to obtain information regarding the immunogenicity of the TUMAPs of the present invention, the inventors performed investigations using an in vitro T-cell priming assay based on repeated stimulations of CD8+ T cells with artificial antigen presenting cells (aAPCs) loaded with peptide/MHC complexes and anti-CD28 antibody.
In order to perform in vitro stimulations by artificial antigen presenting cells loaded with peptide-MHC complex (pMHC) and anti-CD28 antibody, the inventors first isolated CD8+ T cells from fresh HLA-A*02 leukapheresis products via positive selection using CD8 microbeads (Miltenyi Biotec, Bergisch-Gladbach, Germany) of healthy donors obtained from the University clinics Mannheim, Germany, after informed consent. PBMCs and isolated CD8+ lymphocytes were incubated in T-cell medium (TCM) until use consisting of RPMI-Glutamax (Invitrogen, Karlsruhe, Germany) supplemented with 10% heat inactivated human AB serum (PAN-Biotech, Aidenbach, Germany), 100 U/ml Penicillin/100 μg/ml Streptomycin (Cambrex, Cologne, Germany), 1 mM sodium pyruvate (CC Pro, Oberdorla, Germany), 20 μg/ml Gentamycin (Cambrex). 2.5 ng/ml IL-7 (PromoCell, Heidelberg, Germany) and 10 U/ml IL-2 (Novartis Pharma, Nürnberg, Germany) were also added to the TCM at this step. Generation of pMHC/anti-CD28 coated beads, T-cell stimulations and readout was performed in a highly defined in vitro system using four different pMHC molecules per stimulation condition and 8 different pMHC molecules per readout condition.
The purified co-stimulatory mouse IgG2a anti human CD28 Ab 9.3 (Jung et al., 1987) was chemically biotinylated using Sulfo-N-hydroxysuccinimidobiotin as recommended by the manufacturer (Perbio, Bonn, Germany). Beads used were 5.6 μm diameter streptavidin coated polystyrene particles (Bangs Laboratories, Illinois, USA).
pMHC used for positive and negative control stimulations were A*0201/MLA-001 (peptide […] (SEQ ID NO. 289) from modified Melan-A/MART-1) and A*0201/DDX5-001 ([…] from DDX5, SEQ ID NO. 290), respectively.
800.000 beads/200 μl were coated in 96-well plates in the presence of 4×12.5 ng different biotin-pMHC, washed and 600 ng biotin anti-CD28 were added subsequently in a volume of 200 μl. Stimulations were initiated in 96-well plates by co-incubating 1×10^6 CD8+ T cells with 2×10^5 washed coated beads in 200 μl TCM supplemented with 5 ng/ml IL-12 (PromoCell) for 3 days at 37° C. Half of the medium was then exchanged by fresh TCM supplemented with 80 U/ml IL-2 and incubating was continued for 4 days at 37° C. This stimulation cycle was performed for a total of three times. For the pMHC multimer readout using 8 different pMHC molecules per condition, a two-dimensional combinatorial coding approach was used as previously described (Andersen et al., 2012) with minor modifications encompassing coupling to 5 different fluorochromes. Finally, multimeric analyses were performed by staining the cells with Live/dead near IR dye (Invitrogen, Karlsruhe, Germany), CD8-FITC antibody clone SK1 (BD, Heidelberg, Germany) and fluorescent pMHC multimers. For analysis, a BD LSRII SORP cytometer equipped with appropriate lasers and filters was used. Peptide specific cells were calculated as percentage of total CD8+ cells. Evaluation of multimeric analysis was done using the FlowJo software (Tree Star, Oregon, USA). In vitro priming of specific multimer+CD8+ lymphocytes was detected by comparing to negative control stimulations.
Exemplary flow cytometry results after TUMAP-specific multimer staining for peptide of the invention are shown in FIG. 3 together with corresponding negative controls.
For “77 (ALYGNVQQV; listed as Homo sapiens) [compound 77]”, the “Wells positive [%]” value was “+ (<20% = +)”.
“29 (KMISAIPTL; listed as Homo sapiens) [compound 29]” was tested, and the “Wells positive [%]” value was “+ (<20% = +)”.
“101 (SLLEVNEASSV; listed as Homo sapiens) [compound 101]” was tested, and the “Wells positive [%]” value was “+ (<20% = +)”.
With “4 (VLFGELPAL; listed as Homo sapiens) [compound 4]” the “Wells positive [%]” value was “+ (<20% = +)”.
For “246 (ALAGIVTNV; listed as Homo sapiens) [compound 246]”, the “Wells positive [%]” value was “+ (<20% = +)”.
For “66 (AMFPDTIPRV; listed as Homo sapiens) [compound 66]”, the “Wells positive [%]” value was “+ (<20% = +)”.
In the case of “27 (GLLGKVTSV; listed as Homo sapiens) [compound 27]”, the “Wells positive [%]” value is reported as “+ (<20% = +)”.
In the case of “257 (KLIDHQGLYL; listed as Homo sapiens) [compound 257]”, the “Wells positive [%]” value is reported as “+ (<20% = +)”.
In the case of “89 (SLAETIFIV; listed as Homo sapiens) [compound 89]”, the “Wells positive [%]” value is reported as “+ (<20% = +)”.
For “9 (SLITGQDLLSV; listed as Homo sapiens) [compound 9]”, the “Wells positive [%]” value was “+ (<20% = +)”.
With “97 (KLFEKSTGL; listed as Homo sapiens) [compound 97]” the “Wells positive [%]” value was “+ (<20% = +)”.
For “50 (ILLSVLHQL; listed as Homo sapiens) [compound 50]”, the “Wells positive [%]” value was “+ (<20% = +)”.
In the case of “254 (ALGDKFLLRV; listed as Homo sapiens) [compound 254]”, the “Wells positive [%]” value is reported as “+ (<20% = +)”.
For “263 (SIIEYLPTL; listed as Homo sapiens) [compound 263]”, the “Wells positive [%]” value was “+ (<20% = +)”.
With “35 (VIIKGLEEI; listed as Homo sapiens) [compound 35]” the “Wells positive [%]” value was “+ (<20% = +)”.
In the case of “260 (ALNESLVEC; listed as Homo sapiens) [compound 260]”, the “Wells positive [%]” value is reported as “+ (<20% = +)”.
For “121 (ALYVQAPTV; listed as Homo sapiens) [compound 121]”, the “Wells positive [%]” value was “+ (<20% = +)”.
“267 (YLLDMPLWYL; listed as Homo sapiens) [compound 267]” was tested, and the “Wells positive [%]” value was “+ (<20% = +)”.
In the case of “14 (YTFSGDVQL; listed as Homo sapiens) [compound 14]”, the “Wells positive [%]” value is reported as “+ (<20% = +)”.
“236 (KMSELQTYV; listed as Homo sapiens) [compound 236]” was tested, and the “Wells positive [%]” value was “+ (<20% = +)”.
“102 (GLYPVTLVGV; listed as Homo sapiens) [compound 102]” was tested, and the “Wells positive [%]” value was “+ (<20% = +)”.
In the case of “264 (TLHDQVHLL; listed as Homo sapiens) [compound 264]”, the “Wells positive [%]” value is reported as “+ (<20% = +)”.
With “242 (KLQEEIPVL; listed as Homo sapiens) [compound 242]” the “Wells positive [%]” value was “+ (<20% = +)”.
“17 (GLLPSAESIKL; listed as Homo sapiens) [compound 17]” was tested, and the “Wells positive [%]” value was “+ (<20% = +)”.
For “157 (ILQDGQFLV; listed as Homo sapiens) [compound 157]”, the “Wells positive [%]” value was “+ (<20% = +)”.
With “255 (FLMKNSDLYGA; listed as Homo sapiens) [compound 255]” the “Wells positive [%]” value was “+ (<20% = +)”.
“233 (SLFESLEYL; listed as Homo sapiens) [compound 233]” was tested, and the “Wells positive [%]” value was “+ (<20% = +)”.

Same assay, conditions: percentage of positive donors; Table 6A
With “288 (SLYKGLLSV; listed as Homo sapiens) [compound 288]” the “in vitro immunogenicity: donors” value was “++++ (> = 70% = ++++)”.

Same assay, conditions: percentage of positive wells; Table 6A
“287 (KIQEILTQV; listed as Homo sapiens) [compound 287]” was tested, and the “in vitro immunogenicity: wells” value was “+ (<20% = +)”.
